This note sets out measurements from patent US20240148671A1, “METHODS FOR IMPROVING POULTRY HEALTH” (CORNELL UNIVERSITY, priority 2021, published 2024).

Marks after values point to notes of the source that are not given here.

Type in all cases: in vivo, Gallus gallus
A short description of assay [1]: Body weight, cecum weight and cecum:body weight ratio. As to conditions: intra-amniotic 1 mL/egg on day 17; at hatch (day 21); mean ± SEM, n=8. As to the method: (§1) The pure resveratrol and pterostilbene were individually diluted in 18 MΩ H2O. The intra-amniotic administration followed the methodology previously described. On the 17th day of embryonic development, the eggs with viable embryos (n=60) were randomly allocated into 6 groups (n=10) with a similar weight frequency distribution. For the intra-amniotic treatment, 1 mL of solution per egg was injected into the amniotic fluid (via candling) with the aid of a 21-gauge needle. After the procedure, the injection sites were sealed with cellophane tape, and the eggs were distributed into six groups: (1) no injection; (2) 18 MΩ H2O; (3) 5% inulin; (4) 5% resveratrol; (5) 5% pterostilbene; and (6) synergistic: 4.75% resveratrol and 0.25% pterostilbene. […] The eggs were equally distributed in each incubator location to reduce possible allocation bias. Upon hatching (21 days), the hatchlings were euthanized by CO2 exposure, and the blood, liver, heart, pectoral muscle, small intestine and cecum were obtained.

The test system of another assay is hemoglobin (Hb). Briefly: Blood hemoglobin (Hb) after intra-amniotic administration. As to the method:
as §1
Blood was collected using micro-hematocrit heparin-coated capillary tubes (Fisher Scientific, Waltham, MA, USA). The hemoglobin (Hb) concentration was assessed spectrophotometrically using the QuantiChrom™ Hb Assay (DIHB-250, BioAssay Systems, Hayward, CA, USA) and according to specific instructions.

Assay [2] is described as follows: Fe and Zn content in the serum and liver samples. On the procedure:
as §1
The serum (50 μL) and liver (0.5 g) samples were mixed with 3.0 mL of a 60:40 (v/v) solution of nitric acid (HNO3) and perchloric acid (HClO4) and incubated overnight. After this, the samples were heated for 2 hours at 120° C. and added to 0.25 mL of 40 μg/g yttrium (internal standard), and the block temperature was increased to 145° C. for 2 h and then 190° C. for 10 min. At the end of these procedures, the samples were cooled, diluted to a total volume of 20 mL, mixed and transferred into autosampler tubes for analysis (inductively coupled plasma atomic emission spectrometer) (Thermo, Franklin, MA, USA).

Another assay concerns cecal microbiome. Briefly: 16S rRNA gene sequencing of the cecal microbiota. As to conditions: cecal content at hatch. As to the method:
as §1
As was formerly described, cecal samples were used to extract microbial genomic DNA (PowerSoil DNA isolation kit, MoBio Laboratories Ltd., Carlsbad, CA, USA). […] The PCR products were purified (Beckman Coulter, Atlanta, GA, USA) and quantified (Quant-iT PicoGreen dsDNA quantitation kit, Invitrogen, Carlsbad, CA, USA). […]
The 16S rRNA gene sequence analysis was performed using QIIME2 as previously described. The sequence reads were demultiplexed by per-sample barcodes, and the Divisive Amplicon Denoising Algorithm (DADA2) was used to correct the Illumina-sequenced amplicon read errors. […] The alpha and β diversity were calculated from samples containing at least 9.800 sequences. The alpha diversity parameter, a measure of the richness of the bacterial community, was calculated using the Shannon Index, and the beta diversity was assessed by a Jaccard similarity distance matrix. […]
The values in this paper were expressed as means and standard errors of the means (SEM). […] The results were analyzed by Analysis of Variance (ANOVA). […]

The mark [3] stands for this setting: liver, intra-amniotic 1 mL/egg on day 17, at hatch, mean ± SEM, n=8.
Setting [4] is: serum, intra-amniotic 1 mL/egg on day 17, at hatch, mean ± SEM, n=8.

In the case of `Oc1ccc(C=Cc2cc(O)cc(O)c2)cc1` [5% Resveratrol, Resveratrol], in assay [1], the “Body Weight Average (g)” value was 47.1 ± 1.4^a g, the “Cecum Weight Average (g)” value is 0.6 ± 0.0^a g and the “Cecum:Body Weight Ratio” value was 0.013 ± 0.001^a. Besides, the “Hb (g/dL)” value with hemoglobin (Hb) (intra-amniotic 1 mL/egg on day 17, blood at hatch (day 21), mean ± SEM) was 9.71 ± 0.53^a g/dL. In addition, the “Hb concentration, comparison between groups” value with hemoglobin (Hb) (synergistic vs the controls and other treatment groups (p<0.05), 5% resveratrol and 5% pterostilbene vs the control groups) is reported as “no difference”. The “Liver iron concentration vs inulin positive control” value in assay [2] (compared with the inulin positive control) is “similar”. In addition, in assay [2] (setting [3]), the “Liver Iron (μg/g)” value was 46.45 ± 4.71 ^a μg/g and the “Liver Zinc (μg/g)” value was 16.72 ± 1.58 ^b μg/g. Besides, in assay [2] (setting [4]), the “Serum Iron (μg/g)” value was 2.42 ± 0.23 ^b μg/g and the “Serum Zinc (μg/g)” value was 0.97 ± 0.12 ^bc μg/g. In the assay on cecal microbiome (n=5, 5% inulin vs all other experimental groups (p<0.01), 5% pterostilbene vs 18 MΩ H2O control (p<0.05), stilbene groups among each other), the “β diversity of the cecal microbiome (Jaccard distances), comparison between groups” value is “strong clustering”. Moreover, in the assay on cecal microbiome (compared with the no injection control group, p<0.05 (FIGS. 5A-5B)), the “Most differentially enriched taxa (LEfSe) vs no injection control” value was “Enterobacteriales order and Enterobacteriaceae family”.
